Experiments:
Assay type in all cases: cell-based
[1] = system: Human multiple myeloma cell RPMI 8226; assay: CCK-8 cell proliferation assay, RPMI8226; settings: RPMI8226 cells, CCK-8, 24 hrs with drug, OD 450 nm
Procedure: (§1) The effect of samples on the proliferation of human tumor cells in vitro was determined by CCK-8 cell proliferation assay.
(§2) The cells were assayed through a method including the following steps:
(§3) 1) The cells were digested, counted, and prepared into a cell suspension in a corresponding culture medium (Table 1) (5×10^4 cells/ml for CFPAC-1 and RPMI 8226, and 3.5×10^4 cells/ml for rest cells). The cell suspension was added to each well of a 96-well plate in 100 μl well.
(§4) 2) Then the 96-well plate was incubated for 24 hrs in an incubator at 37° C. and 5% CO2.
(§5) 3) The drug was diluted with the culture medium to the required working concentration. 100 μl of the corresponding drug containing medium was added to each well. A negative control group (added with drug-free culture medium) was also set.
(§6) 4) Then the 96-well plate was incubated for 24 hrs in an incubator at 37° C. and 5% CO2.
(§7) 5) The 96-well plate was stained with CCK-8, and The OD value was determined at λ=450 nm.
(§8) a) 10 μl of CCK-8 was added to each well, and incubated in the incubator for another 2-3 hrs.
(§9) b) The content was mixed uniformly by shaking gently on a shaker for 10 min, and the bubbles in the 96-well plate were removed.
(§10) 6) The inhibition rate in each group was calculated.

[2] = system: Human pancreatic cancer cell CFPAC-1; assay: CCK-8 cell proliferation assay, CFPAC-1; settings: CFPAC-1 cells, CCK-8, 24 hrs with drug, OD 450 nm
Procedure: as §1, §2, §3, §4, §5, §6, §7, §8, §9, §10

[3] = system: Human esophageal cancer cell TE-1; assay: CCK-8 cell proliferation assay, TE-1; settings: TE-1 cells, CCK-8, 24 hrs with drug, OD 450 nm
Procedure: as §1, §2, §3, §4, §5, §6, §7, §8, §9, §10

[4] = system: Human lung adenocarcinoma cell A549; assay: CCK-8 cell proliferation assay, A549; settings: A549 cells, CCK-8, 24 hrs with drug, OD 450 nm
Procedure: as §1, §2, §3, §4, §5, §6, §7, §8, §9, §10

[5] = system: Human hepatoma cell HepG2; assay: CCK-8 cell proliferation assay, HepG2; settings: HepG2 cells, CCK-8, 24 hrs with drug, OD 450 nm
Procedure: as §1, §2, §3, §4, §5, §6, §7, §8, §9, §10

[6] = system: Human colon cancer cell HCT-116; assay: CCK-8 cell proliferation assay, HCT116; settings: HCT116 cells, CCK-8, 24 hrs with drug, OD 450 nm
Procedure: as §1, §2, §3, §4, §5, §6, §7, §8, §9, §10

[7] = system: Human gastric cancer cell MKN45; assay: CCK-8 cell proliferation assay, MKN-45; settings: MKN-45 cells, CCK-8, 24 hrs with drug, OD 450 nm
Procedure: as §1, §2, §3, §4, §5, §6, §7, §8, §9, §10

IC50 [1] [nM] | IC50 [2] [nM] | IC50 [3] [nM] | IC50 [4] [nM] | IC50 [5] [nM] | IC50 [6] [nM] | IC50 [7] [nM] | Compound
42 | 36 | 93 | 52 | 81 | 78 | 59 | O=C(NCCCCCCC1CCN(C(=O)c2ccc[nH]2)C1)Nc1cccnc1 (centres unmarked) [BSS-TP112, 1-(6-(1-(2-pyrrolylformyl)pyrrolidin-3-yl)hexyl)-2-(3-pyridinyl)urea]
30 | 32 | 55 | 30 | 59 | 41 | 46 | COc1cccc(OC)c1C(=O)N1CCC(CCCCCNC(=O)Nc2ccnc(F)c2)C1 (centres unmarked) [BSS-TP016]
34 | 58 | 135 | 75 | 102 | 76 | 109 | COc1cccc(OC)c1C(=O)N1CCC(CCCCNC(=O)Nc2ccncc2)C1 (centres unmarked) [BSS-TP127, 1-(4-(1-(2,6-dimethoxybenzoyl)pyrrolidin-3-yl)butyl)-2-(4-pyridinyl) urea]
39 | 42 | 82 | 56 | 63 | 73 | 64 | O=C(NCCCCCCC1CCN(C(=O)c2cc3ccccc3o2)C1)Nc1ccnc(F)c1 (centres unmarked) [BSS-TP124]
44 | 49 | 132 | 72 | 85 | 39 | 71 | O=C(NCCCCCC1CCN(C(=O)c2cccs2)C1)Nc1ccnc(F)c1 (centres unmarked) [BSS-TP019]
40 | 37 | 65 | 62 | 77 | 54 | 53 | O=C(NCCCCCC1CCN(C(=O)c2cc3ccccc3[nH]2)C1)Nc1ccncc1 (centres unmarked) [BSS-TP025, 1-(5-(1-(2-indolylformyl)pyrrolidin-3-yl)pentyl)-2-(4-pyridinyl)urea]
32 | 29 | 81 | 33 | 77 | 71 | 36 | O=C(NCCCCCC1CCN(C(=O)c2ccco2)C1)Nc1ccncc1 (centres unmarked) [BSS-TP011, 1-(5-(1-(furoyl)pyrrolidin-3-yl)pentyl)-2-(4-pyridinyl)urea]
33 | 34 | 91 | 93 | 49 | 47 | 52 | O=C(NCCCCCC1CCN(C(=O)C2CCCN2)C1)Nc1ccnc(F)c1 (centres unmarked) [BSS-TP020]
46 | 40 | 60 | 42 | 63 | 62 | 57 | O=C(NCCCCCC1CCN(C(=O)c2occc2F)C1)Nc1ccncc1 (centres unmarked) [BSS-TP030]
29 | 33 | 62 | 33 | 75 | 57 | 46 | O=C(NCCCCCCC1CCN(C(=O)c2ccc[nH]2)C1)Nc1ccncc1 (centres unmarked) [BSS-TP104, 1-(6-(1-(2-pyrrolylformyl)pyrrolidin-3-yl)hexyl)-2-(4-pyridinyl)urea]
26 | 39 | 49 | 29 | 46 | 21 | 63 | COc1cccc(OC)c1C(=O)N1CCC(CCCCCNC(=O)Nc2ccncc2)C1 (centres unmarked) [BSS-TP009, 1-(5-(1-(2,6-dimethoxybenzoyl)pyrrolidin-3-yl)pentyl)-2-(4-pyridinyl) urea]
33 | 22 | 58 | 55 | 51 | 77 | 43 | O=C(NCCCCCC1CCN(C(=O)c2cccs2)C1)Nc1ccncc1 (centres unmarked) [BSS-TP008, 1-(5-(1-(2-thienylformyl)pyrrolidin-3-yl)pentyl)-2-(4-pyridinyl)urea]
20 | 38 | 42 | 36 | 41 | 25 | 34 | O=C(NCCCCCC1CCN(C(=O)c2ccc[nH]2)C1)Nc1ccncc1 (centres unmarked) [BSS-TP010, 1-(5-(1-(2-pyrrolylformyl)pyrrolidin-3-yl)pentyl)-2-(4-pyridinyl)urea]
36 | 53 | 124 | 68 | 110 | 97 | 51 | O=C(NCCCCCCCC1CCN(C(=O)c2ccco2)C1)Nc1ccncc1 (centres unmarked) [BSS-TP128, 1-(7-(1-(furoyl)pyrrolidin-3-yl)heptyl)-2-(4-pyridinyl)urea]
24 | 29 | 65 | 43 | 49 | 52 | 31 | O=C(NCCCCC[C@@H]1CCN(C(=O)c2cccs2)C1)Nc1ccncc1 [BSS-TP040, (R)-1-(5-(1-(2-thienylformyl)pyrrolidin-3-yl)pentyl)-2-(4-pyridinyl)urea]
43 | 38 | 87 | 72 | 83 | 50 | 61 | O=C(NCCCCCCC1CCN(C(=O)c2cccs2)C1)Nc1cc(F)nc(F)c1 (centres unmarked) [BSS-TP119]
30 | 38 | 137 | 67 | 124 | 51 | 59 | O=C(NCCCCCC1CCN(C(=O)C2CCCO2)C1)Nc1ccncc1 (centres unmarked) [BSS-TP012, 1-(5-(1-(2-tetrahydrofurylformyl)pyrrolidin-3-yl)pentyl)-2-(4-pyridinyl)urea]
38 | 25 | 73 | 46 | 60 | 71 | 47 | O=C(NCCCCC[C@H]1CCN(C(=O)c2cccs2)C1)Nc1ccncc1 [BSS-TP039, (S)-1-(5-(1-(2-thienylformyl)pyrrolidin-3-yl)pentyl)-2-(4-pyridinyl)urea]
51 | 42 | 72 | 69 | 83 | 92 | 71 | O=C(NCCCCCC1CCN(C(=O)c2cc3ccccc3o2)C1)Nc1ccncc1 (centres unmarked) [BSS-TP026, 1-(5-(1-(2-benzofurylformyl)pyrrolidin-3-yl)pentyl)-2-(4-pyridinyl)urea]
50 | 51 | 82 | 117 | 89 | 62 | 91 | O=C(NCCCCCC1CCN(C(=O)C2CCCN2)C1)Nc1ccncc1 (centres unmarked) [BSS-TP014, 1-(5-(1-(2-pyrrolidinylformyl)pyrrolidin-3-yl)pentyl)-2-(4-pyridinyl)urea]
28 | 35 | 49 | 47 | 53 | 66 | 42 | O=C(NCCCCCCC1CCN(C(=O)c2ccc[nH]2)C1)Nc1cc(F)nc(F)c1 (centres unmarked) [BSS-TP120]
15 | 31 | 50 | 28 | 43 | 88 | 36 | O=C(NCCCCCCC1CCN(C(=O)c2cccs2)C1)Nc1ccncc1 (centres unmarked) [BSS-TP103, 1-(6-(1-(2-thienylformyl)pyrrolidin-3-yl)hexyl)-2-(4-pyridinyl)urea]
22 | 28 | 57 | 31 | 39 | 43 | 33 | O=C(NCCCCCC1CCN(C(=O)c2ccccc2)C1)Nc1ccnc(F)c1 (centres unmarked) [BSS-TP015]
36 | 37 | 47 | 58 | 49 | 53 | 45 | O=C(NCCCCCCC1CCN(C(=O)c2ccccc2)C1)Nc1cc(F)nc(F)c1 (centres unmarked) [BSS-TP117]
53 | 42 | 133 | 61 | 87 | 62 | 77 | O=C(NCCCCCCC1CCN(C(=O)c2ccco2)C1)Nc1cccnc1 (centres unmarked) [BSS-TP111, 1-(6-(1-(furoyl)pyrrolidin-3-yl)hexyl)-2-(3-pyridinyl)urea]
39 | 33 | 76 | 49 | 72 | 85 | 51 | O=C(NCCCCCCC1CCN(C(=O)c2ccc[nH]2)C1)Nc1ccnc(F)c1 (centres unmarked) [BSS-TP114]

Source: patent publication US12291515B2, “Pyrrolidine derivative and use thereof” (Rushi Biotech (Hangzhou) Co., Ltd, priority 2021, dated 2025)
